Data as given in patent US4336389A, “2-Substituted-4-aryl-5-thiazolecarboxylic acids and their derivatives as safening agents” (Monsanto Company, priority 1978, dated 1982).

Key:
Assay type in all cases: in vivo
Barnyard Grass [1] = assay: Inhibition of barnyard grass, safening agent and butachlor applied to soil surface, flooded pots (Example 18, Table IV); details: ~21 days, mean of two replicates
Protocol: (§1) 5.08 cm. of a good grade of top soil is placed in a 7.62 cm. deep plastic pot. A predetermined number of barnyard grass seeds are applied to the soil surface. A measured quantity of the safening agent and butachlor dispersed or dissolved in a suitable carrier is applied to the soil surface. Pre-soaked rice is seeded into the pots that were previously flooded with water. The water level is lowered below the soil surface for one week. The pots are flooded just above the soil surface for the duration of the test. The plants are observed at the end of approximately 21 days and the results in terms of percent inhibition recorded. For each test, pots are prepared containing soil treated only with butachlor. For each test, pots are prepared containing soil treated only with the safening agent. Pots are also prepared with untreated soil.

rice [2] = assay: Safening effect against butachlor injury to rice, safening agent and herbicide incorporated in soil (Example 15, Table I); set-up: key: herbicide-alone + safener-alone effect (max 100) minus combined effect; details: safening agent 8.96 kg/h; butachlor 6.72 kg/h; ~21 days
Protocol: (§2) A good grade of top soil is placed in a container and compacted to a depth of approximately 1.27 cm. from the top of said container. A predetermined number of rice seeds to be tested are placed on top of the soil. A quantity of soil sufficient to substantially fill the container is measured and placed in a second container. A measured quantity of the safening agent dispersed or dissolved in a suitable carrier is applied to the soil in the second container. A measured quantity of butachlor dispersed or dissolved in a suitable carrier is then sprayed on the soil already treated with the safening agent. The soil containing the safening agent and herbicide is thoroughly mixed. This mixing is sometimes referred to as incorporation of the herbicide and safening agent into the soil. The mixing or incorporation provides a substantially uniform distribution of the safening agent and herbicide throughout the soil. The seeds are covered with the soil containing the safening agent and herbicide and the pans are leveled. The pans are then placed on a sand bench in the greenhouse and watered from below as needed. The plants are observed at the end of approximately 21 days and the results in terms of percent inhibition of each seed lot are recorded. For each test series a pan of plants is also prepared containing no herbicide and no safening agent as a control. Additionally, for each test, a pan of plants is prepared with soil covering the seed containing no herbicide and only the measured amount of safening agent being incorporated into the soil covering the seeds to ascertain any herbicidal effect of the safening agent alone. For each series of tests the herbicidal effect of the herbicide is observed from pans of plants treated with the same quantity of herbicide alone. The "safening effect" is determined by adding the hericidal effect of the herbicide when applied alone to the herbicidal effect of the safening agent when applied alone (in no instance, however, will this sum be greater than 100) and substracting from that the herbicidal effect obtained when the herbicide and safening agent are incorporated into the soil as discussed above.
Table I summarizes the results obtained when the compounds of the invention were tested in accordance with the procedure of Example 15.

rice [3] = assay: Inhibition of rice, safening agent and butachlor applied to soil surface, flooded pots (Example 18, Table IV); details: ~21 days, mean of two replicates
Protocol: as §1

rice [4] = assay: Safening effect against butachlor injury to pre-soaked rice, soil surface application, flooded pots (Example 16, Table II); set-up: key: herbicide injury alone + safener injury alone (max 100) minus combined injury; details: safening agent 0.56 kg/h, ~21 days, mean of two replicates
Protocol: as §2
A good grade of top soil is placed in a plastic pot. A measured quantity of the safening agent dispersed or dissolved in a suitable carrier is sprayed on the soil surface. A measured quantity of butachlor herbicide dissolved in a solvent is sprayed on the soil surface. Presoaked rice is seeded into the pots that were previously flooded with water and the water level lowered below the soil surface for one week. The pots are flooded at least up to the soil surface for the duration of the test. The plants are observed at the end of approximately 21 days and the results in terms of the percent inhibition of rice is recorded. As in Example 15, for each test pots are prepared containing soil treated only with butachlor. For each test, pots are also prepared containing soil treated only with the safening agent. Pots are also prepared in which the soil is not treated with either the herbicide or the safening agent. The safening effect is determined in accordance with Example 15.
Table II summarizes the results obtained when the compounds of the invention were tested in accordance with the procedure of Example 16.

rice [5] = assay: Inhibition of rice by butachlor and safening agent sprayed on soil surface, flooded pots (Example 17, Table III); details: ~21 days, mean of two replicates
Protocol: as §1, with “agent” for “agent and butachlor”, “is sprayed on the soil surface. A measured quantity of butachlor herbicide dissolved in a solvent is sprayed on” for “is applied to”, “one week to allow barnyard grass to emerge.” for “one week.”, “prepared containing” for “prepared with”

Barnyard Grass [6] = assay: Inhibition of barnyard grass by butachlor and safening agent sprayed on soil surface, flooded pots (Example 17, Table III); details: ~21 days, mean of two replicates
Protocol: as §1, with “agent” for “agent and butachlor”, “is sprayed on the soil surface. A measured quantity of butachlor herbicide dissolved in a solvent is sprayed on” for “is applied to”, “one week to allow barnyard grass to emerge.” for “one week.”, “prepared containing” for “prepared with”

rice [7] = assay: Percent inhibition of rice, mixture incorporated in soil cover layer (Example 19, Table V); details: ~21 days
Text: (§3) 5.08 cm. of a good grade of top soil is placed in a 7.62 cm. deep plastic pot. A predetermined number of weed seeds and rice seeds are applied to the soil surface. Butachlor and ethyl 2-chloro-4-phenyl-5-thiazolecarboxylate are applied to a soil cover layer as a mixture and incorporated by shaking the treated soil cover layer in a plastic bag. The cover layers were then placed on the pre-seeded pots. The plants are observed at the end of approximately 21 days and the results in terms of percent inhibition recorded. For each test, pots are prepared containing soil treated only with butachlor. For each test, pots are prepared containing soil treated only with the safening agent. Pots are also prepared with untreated soil.

Barnyard Grass [8] = assay: Percent inhibition of barnyard grass, mixture incorporated in soil cover layer (Example 19, Table V); details: ~21 days
Text: as §3

Crabgrass = assay: Percent inhibition of crabgrass, mixture incorporated in soil cover layer (Example 19, Table V); details: ~21 days
Text: as §3

Panicum = assay: Percent inhibition of panicum, mixture incorporated in soil cover layer (Example 19, Table V); details: ~21 days
Text: as §3

Foxtail = assay: Percent inhibition of foxtail, mixture incorporated in soil cover layer (Example 19, Table V); details: ~21 days
Text: as §3

[9] = safening agent 0.07 kg/h + butachlor 0.07 kg/h
[10] = safening agent 0.07 kg/h + butachlor 0.28 kg/h
[11] = safening agent 0.07 kg/h + butachlor 1.12 kg/h
[12] = safening agent 0.28 kg/h + butachlor 0.07 kg/h
[13] = safening agent 0.28 kg/h + butachlor 0.28 kg/h
[14] = safening agent 0.28 kg/h + butachlor 1.12 kg/h
[15] = safening agent 1.12 kg/h + butachlor 0.07 kg/h
[16] = safening agent 1.12 kg/h + butachlor 0.28 kg/h
[17] = safening agent 1.12 kg/h + butachlor 1.12 kg/h

## CCOC(=O)c1sc(Cl)nc1-c1ccc(Cl)cc1 [Example 4, Ethyl 2-Chloro-4-p-Chlorophenyl-5-Thiazolecarboxylate]
Barnyard Grass [1]; [9]
  % Inhibition, Barnyard Grass: 90%
Barnyard Grass [1]; [10]
  % Inhibition, Barnyard Grass: 100%
Barnyard Grass [1]; [11]
  % Inhibition, Barnyard Grass: 100%
Barnyard Grass [1]; [12]
  % Inhibition, Barnyard Grass: 85%
Barnyard Grass [1]; [13]
  % Inhibition, Barnyard Grass: 100%
Barnyard Grass [1]; [14]
  % Inhibition, Barnyard Grass: 100%
Barnyard Grass [1]; [15]
  % Inhibition, Barnyard Grass: 85%
Barnyard Grass [1]; [16]
  % Inhibition, Barnyard Grass: 100%
Barnyard Grass [1]; [17]
  % Inhibition, Barnyard Grass: 100%
Barnyard Grass [1]; safening agent alone 0.07 kg/h
  % Inhibition, Barnyard Grass: 0%
Barnyard Grass [1]; safening agent alone 0.28 kg/h
  % Inhibition, Barnyard Grass: 0%
Barnyard Grass [1]; safening agent alone 1.12 kg/h
  % Inhibition, Barnyard Grass: 0%
Rice [2]
  Safening Effect: 85
Rice [3]; [9]
  % Inhibition, Rice: 5%
Rice [3]; [10]
  % Inhibition, Rice: 63%
Rice [3]; [11]
  % Inhibition, Rice: 88%
Rice [3]; [12]
  % Inhibition, Rice: 0%
Rice [3]; [13]
  % Inhibition, Rice: 30%
Rice [3]; [14]
  % Inhibition, Rice: 40%
Rice [3]; [15]
  % Inhibition, Rice: 0%
Rice [3]; [16]
  % Inhibition, Rice: 30%
Rice [3]; [17]
  % Inhibition, Rice: 88%
Rice [3]; safening agent alone 0.07 kg/h
  % Inhibition, Rice: 0%
Rice [3]; safening agent alone 0.28 kg/h
  % Inhibition, Rice: 0%
Rice [3]; safening agent alone 1.12 kg/h
  % Inhibition, Rice: 0%
Rice [4]; butachlor 0.07 kg/h
  Safening Effect: 30
Rice [4]; butachlor 0.28 kg/h
  Safening Effect: 70
Rice [4]; butachlor 1.12 kg/h
  Safening Effect: 32
Rice [5]; [9]
  Inhibition, Rice: 0%
Rice [5]; [10]
  Inhibition, Rice: 0%
Rice [5]; [11]
  Inhibition, Rice: 78%
Rice [5]; [12]
  Inhibition, Rice: 0%
Rice [5]; [13]
  Inhibition, Rice: 0%
Rice [5]; [14]
  Inhibition, Rice: 40%
Rice [5]; [15]
  Inhibition, Rice: 0%
Rice [5]; [16]
  Inhibition, Rice: 0%
Rice [5]; [17]
  Inhibition, Rice: 28%
Rice [5]; safening agent alone 0.07 kg/h
  Inhibition, Rice: 0%
Rice [5]; safening agent alone 0.28 kg/h
  Inhibition, Rice: 0%
Rice [5]; safening agent alone 1.12 kg/h
  Inhibition, Rice: 0%
Barnyard Grass [6]; [9]
  Inhibition, Barnyard Grass: 99%
Barnyard Grass [6]; [10]
  Inhibition, Barnyard Grass: 100%
Barnyard Grass [6]; [11]
  Inhibition, Barnyard Grass: 100%
Barnyard Grass [6]; [12]
  Inhibition, Barnyard Grass: 99%
Barnyard Grass [6]; [13]
  Inhibition, Barnyard Grass: 99%
Barnyard Grass [6]; [14]
  Inhibition, Barnyard Grass: 100%
Barnyard Grass [6]; [15]
  Inhibition, Barnyard Grass: 99%
Barnyard Grass [6]; [16]
  Inhibition, Barnyard Grass: 99%
Barnyard Grass [6]; [17]
  Inhibition, Barnyard Grass: 100%
Barnyard Grass [6]; safening agent alone 0.07 kg/h
  Inhibition, Barnyard Grass: 0%
Barnyard Grass [6]; safening agent alone 0.28 kg/h
  Inhibition, Barnyard Grass: 0%
Barnyard Grass [6]; safening agent alone 1.12 kg/h
  Inhibition, Barnyard Grass: 0%

## CCCCOCN(C(=O)CCl)c1c(CC)cccc1CC [butachlor, 2-chloro-2',6'-diethyl-N-(butoxymethyl)acetanilide, reference compound]
Rice [7]; butachlor alone 2.24 kg/h
  Percent Inhibition, Rice: 50%
Rice [7]; butachlor alone 4.48 kg/h
  Percent Inhibition, Rice: 78%
Rice [7]; butachlor alone 8.96 kg/h
  Percent Inhibition, Rice: 93%
Barnyard Grass [1]; butachlor alone 0.07 kg/h
  % Inhibition, Barnyard Grass: 100%
Barnyard Grass [1]; butachlor alone 0.28 kg/h
  % Inhibition, Barnyard Grass: 100%
Barnyard Grass [1]; butachlor alone 1.12 kg/h
  % Inhibition, Barnyard Grass: 100%
Rice [3]; butachlor alone 0.07 kg/h
  % Inhibition, Rice: 64%
Rice [3]; butachlor alone 0.28 kg/h
  % Inhibition, Rice: 78%
Rice [3]; butachlor alone 1.12 kg/h
  % Inhibition, Rice: 100%
Barnyard Grass [8]; butachlor alone 2.24 kg/h
  Percent Inhibition, Barnyard Grass: 100%
Barnyard Grass [8]; butachlor alone 4.48 kg/h
  Percent Inhibition, Barnyard Grass: 100%
Barnyard Grass [8]; butachlor alone 8.96 kg/h
  Percent Inhibition, Barnyard Grass: 100%
Crabgrass; butachlor alone 2.24 kg/h
  Percent Inhibition, Crabgrass: 100%
Crabgrass; butachlor alone 4.48 kg/h
  Percent Inhibition, Crabgrass: 100%
Crabgrass; butachlor alone 8.96 kg/h
  Percent Inhibition, Crabgrass: 100%
Panicum; butachlor alone 2.24 kg/h
  Percent Inhibition, Panicum: 99%
Panicum; butachlor alone 4.48 kg/h
  Percent Inhibition, Panicum: 100%
Panicum; butachlor alone 8.96 kg/h
  Percent Inhibition, Panicum: 100%
Foxtail; butachlor alone 2.24 kg/h
  Percent Inhibition, Foxtail: 100%
Foxtail; butachlor alone 4.48 kg/h
  Percent Inhibition, Foxtail: 100%
Foxtail; butachlor alone 8.96 kg/h
  Percent Inhibition, Foxtail: 100%
Rice [5]; butachlor alone 0.07 kg/h
  Inhibition, Rice: 31%
Rice [5]; butachlor alone 0.28 kg/h
  Inhibition, Rice: 74%
Rice [5]; butachlor alone 1.12 kg/h
  Inhibition, Rice: 98%
Barnyard Grass [6]; butachlor alone 0.07 kg/h
  Inhibition, Barnyard Grass: 99%
Barnyard Grass [6]; butachlor alone 0.28 kg/h
  Inhibition, Barnyard Grass: 100%
Barnyard Grass [6]; butachlor alone 1.12 kg/h
  Inhibition, Barnyard Grass: 100%
